Our source for the IC50 values is US20260166159A1, “KRAS G12D DEGRADATION AGENT, AND PREPARATION METHOD AND USE THEREFOR” (LEADINGTAC PHARMACEUTICAL (SHAOXING) CO., LTD., priority 2022, published 2026).

Assay type in all cases: cell-based
The test system of test [1] is KRAS G12D mutant human gastric cancer cell AGS. In words: 3D cell proliferation inhibition assay, AGS. To be noted: 168 h, 7 days, CTG, numeric values. An outline of the steps: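 3D growth, low-adsorption plate; 5×10^2 cells/well; cpd 10000–0.026 nM final, 0.2% DMSO; 7 d, 37 °C/5% CO2. CTG luminescence, 60 min RT. % inhibition vs DMSO (cells) and medium blanks; IC50 by nonlinear fit.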

In test [2] the test system is KRAS G12D mutant human pancreatic cancer cell Panc 04.03. In words: 3D cell proliferation inhibition assay, Panc 04.03. To be noted: 168 h, Panc 04.03, 7 days, CTG, numeric values. The source says:
(§1) The inhibitory effects of the compounds on 3D cell proliferation were investigated on KRAS G12D mutant human lung cancer cell A427, KRAS G12D mutant human gastric cancer cell AGS, KRAS G12D mutant human metastatic pancreatic cancer cell AsPc-1, KRAS G12D mutant human pancreatic cancer cell Panc 04.03, KRAS G12D mutant human pancreatic cancer cell HPAC, KRAS G12V mutant human lung squamous cell carcinoma cell SW900, and KRAS WT human gastric cancer cell MKN1. The specific procedures were as follows:
(§2) 10 μL of each compound solution diluted in a gradient was added to corresponding wells of a 96-well low-adsorption microplate (PerkinElmer), so that the final concentrations of the test compounds in the reaction system were in a range of 10000-0.026 nM. The final concentration of DMSO was 0.2%. Then 90 µL of cells were correspondingly seeded into each well to achieve a cell density of 5×10^2 cells/well (the cell density of SW900 was 5×10^1 cells/well, and the cell density of MKN1 was 1×10^3 cells/well). In addition to test wells for the test compounds, both a DMSO control well and a medium control well were set, with the DMSO control well containing DMSO and cells and the medium well containing only a medium. After the sample loading, the 96-well low-adsorption microplate was incubated in an incubator at 37° C. with 5% carbon dioxide for 7 days. After 7 days, the microplate was taken out, and 100 μL of CTG reagent (Promega) was added to each well. The plate was incubated at room temperature for 60 min and read on a microplate reader EnVision by the chemiluminescence program. The inhibition rates of the compounds at each concentration were calculated using the formula for the percentage inhibition of cell proliferation: inhibition rate %=(mean value of DMSO control group−single concentration reading value of compound)/(mean value of DMSO control group−mean value of medium control group)×100. Then non-linear curve fittings for logarithmic concentration-inhibition rate were performed by GraphPad Prism 8, and the IC50 values of the compounds were obtained (Table 5).

For test [3], the system named is KRAS G12D mutant human pancreatic cancer cell HPAC. In words: 3D cell proliferation inhibition assay, HPAC. To be noted: 168 h, 7 days, CTG.
Text: as §1, §2

Test [4] relates to KRAS G12D mutant human metastatic pancreatic cancer cell AsPc-1. In words: 3D cell proliferation inhibition assay, AsPc-1. The settings on record: ASPC1, 168 h, AsPc-1, 7 days, CTG, numeric values.
Text: as §1, §2

The IC50 is the point on the concentration scale where inhibition reaches its midpoint. Low readings indicate greater potency, high ones weaker potency. Regarding `C#Cc1c(F)ccc2cc(O)cc(-c3ncc4c(N5CC6CCC(C5)N6)nc(OCC5(CN6CCN(CC7CCC8(CC7)CCN(C(=O)c7cc(N9CCC(=O)NC9=O)c(C)cc7F)CC8)CC6)CC5)nc4c3F)c12` [Example 104, 1-(5-(9-((4-((1-(((4-(3,8-diazabicyclo[3.2.1]octan-3-yl)-7-(8-ethynyl-7-fluoro-3-hydroxynaphthalen-1-yl)-8-fluoropyrido[4,3-d]pyrimidin-2-yl)oxy)methyl)cyclopropyl)methyl)piperazin-1-yl)methyl)-3-azaspiro[5.5]undecane-3-carbonyl)-4-fluoro-2-methylphenyl)dihydropyrimidine-2,4(1H,3H)-dione], the IC50 amounted to 2.49 nM in test [1], 31.3 nM in test [2], 5.32 nM in test [3] and 1.83 nM in test [4].
The matching figures for `[2H]C([2H])([2H])c1ccc(C(=O)N2CCC3(CCC(CN4CCN(CC5(COc6nc(N7CC8CCC(C7)N8)c7cnc(-c8cc(O)cc9ccc(F)c(C#C)c89)c(F)c7n6)CC5)CC4)CC3)CC2)cc1N1CCC(=O)NC1=O` [Example 103, 1-(5-(9-((4-((1-(((4-(3,8-diazabicyclo[3.2.1]octan-3-yl)-7-(8-ethynyl-7-fluoro-3-hydroxynaphthalen-1-yl)-8-fluoropyrido[4,3-d]pyrimidin-2-yl)oxy)methyl)cyclopropyl)methyl)piperazin-1-yl)methyl)-3-azaspiro[5.5]undecane-3-carbonyl)-2-(methyl-d3)phenyl)dihydropyrimidine-2,4(1H,3H)-dione]: 4.35 nM, 16.8 nM, 1.58 nM and 1.41 nM.
For the compound `C#Cc1c(F)ccc2cc(O)cc(-c3ncc4c(N5CC6CCC(C5)N6)nc(OCC5(CN6CCN(CC7CCC8(CCN(C(=O)c9ccc(C)c(N%10CCC(=O)NC%10=O)c9)CC8)OC7)CC6)CC5)nc4c3F)c12` (stereo not drawn) [Example 151, 1-(5-(3-((4-((1-(((4-(3,8-diazabicyclo[3.2.1]octan-3-yl)-7-(8-ethynyl-7-fluoro-3-hydroxynaphthalen-1-yl)-8-fluoropyrido[4,3-d]pyrimidin-2-yl)oxy)methyl)cyclopropyl)methyl)piperazin-1-yl)methyl)-1-oxa-9-azaspiro[5.5]undecane-9-carbonyl)-2-methylphenyl)dihydropyrimidine-2,4(1H,3H)-dione], the IC50 in test [1] came to 6.82 nM; in test [2], 23.1 nM; in test [3] it was 6.92 nM; in test [4], 3.86 nM.
